Key:
Kunming (KM) mice [1] = assay: Mouse light-dark transition experiment (Experiment 2); assay type: in vivo
Description: 2.1 Experimental animals: Kunming (KM) mice, male, 24˜26 g of body weight, secondary, are provided by the Experimental Animal Science Department of Capital Medical University, Beijing.
2.2 Experimental pharmaceuticals: The pharmaceutical of Embodiment 4 is provided by Beijing Wonner Biotech. Ltd. Co., and Diazepam is the product of Tianjin Jinhuei Amino Acid Co. Ltd.
2.3 Experimental equipment: Self-made light-dark transition box.
2.4 Dose designs: 1. High dose of Embodiment 4 (80 mg/kg/d); 2. middle dose of Embodiment 4 (40 mg/kg/d); and 3. low dose of Embodiment 4 (20 mg/kg/d).
(§1) 2.5.1 Group division and administration of drug: The mice are grouped randomly as 5 groups, and 10 mice are in each group. 1. High dose of Embodiment 4 (80 mg/kg); 2. middle dose of Embodiment 4 (40 mg/kg); 3. low dose of Embodiment 4 (20 mg/kg); 4. […]
(§2) Mouse light-dark transition test: The dark chamber occupies one third of the light-dark transition chamber (44 cm×21 cm×21 cm), and the top is capped. […] The times that the mouse enters into the dark chamber and returns to the light chamber within 10 minutes are determined, and the times thereof are the index for evaluating the anti-anxiety function of the drugs.
2.5.3 Statistic calculation: The experimental data are represented as X±SD, and the experimental result is calculated as one-way ANOVA by SPSS 11.5 statistic software.

Kunming (KM) mice [2] = assay: Mouse light-dark transition experiment (Experiment 1); assay type: in vivo
Description: 1.1 Experimental animals: Kunming (KM) mice, male, 24˜26 g of body weight, secondary, are provided by the Experimental Animal Science Department of Capital Medical University, Beijing.
1.2 Experimental pharmaceuticals: The pharmaceutical of Embodiment 1 is provided by Beijing Wonner Biotech. Ltd. Co., and Diazepam is the product of Tianjin Jinhuei Amino Acid Co. Ltd.
1.3 Experimental equipment: Self-made light-dark transition box.
as §1, with “1.5.1 Group” for “2.5.1 Group”, “Embodiment 1” for “Embodiment 4”, “4. Diazepam (2.5 mg/kg); and 5. physiological saline (normal saline, NS).” for “4.”
as §2
1.5.3 Statistic calculation: The experimental data are represented as X±SD, and the experimental result is calculated as one-way analysis of variance (one-way ANOVA) by SPSS 11.5 statistic software.

[3] = in the human body; cited from earlier work
[4] = 2.5 mg/kg, fed into the stomach once daily for 7 days, test 1 hour after last administration, within 10 minutes, X±SD, 10 mice

| SMILES | Times of passing from dark chamber to light chamber (Kunming (KM) mice [1]; [4]) | Effect on the times that the mouse passes from the dark chamber to the light chamber, in words (Kunming (KM) mice [1]; compared with normal saline, high, middle and low doses of Embodiment 4, Diazepam 2.5 mg/kg) | Times of passing from dark chamber to light chamber (Kunming (KM) mice [2]; [4]) | Effect on the times that the mouse passes from the dark chamber to the light chamber, in words (Kunming (KM) mice [2]; compared with physiological saline, high, middle and low doses of Embodiment 1, Diazepam 2.5 mg/kg) | Efficiency of conversion of glycyrrhizic acid to glycyrrhetinic acid [3] [%] |
| --- | --- | --- | --- | --- | --- |
| CN1C(=O)CN=C(c2ccccc2)c2cc(Cl)ccc21 [Diazepam] | 11.7 ± 4.47 | significantly increase | 11.3 ± 4.54 | significantly increase |  |
| CC1(C)[C@@H](O[C@H]2O[C@H](C(=O)O)[C@@H](O)[C@H](O)[C@H]2O[C@@H]2O[C@H](C(=O)O)[C@@H](O)[C@H](O)[C@H]2O)CC[C@]2(C)[C@H]3C(=O)C=C4[C@@H]5C[C@@](C)(C(=O)O)CC[C@]5(C)CC[C@@]4(C)[C@]3(C)CC[C@@H]12 [glycyrrhizic acid] |  |  |  |  | ~100 |

Reference: US20170274032A1, “PHARMACEUTICAL COMPOSITIONS FOR TREATING ANXIETY” (Beijing Wonner Biotech. Ltd. Co., priority 2007, published 2017)
